Measurements published in patent US10067124B2, “Immunoassay method for pro-gastrin-releasing peptide” (Abbott Laboratories, priority 2006, dated 2018).

System: serine protease such as thrombin
Experiment: Stabilization of ProGRP in serum by addition of PMSF (Example 2)
Format: biochemical
Conditions: PMSF added to serum, room temperature storage
Method: After PMSF (manufactured by Sigma-Aldrich Co.) was added to serum, ProGRP 31-98 antigen amino no acid synthesized by the Fmoc method was added thereto. After the mixture was stored at room temperature, the concentration of ProGRP was assayed using the Architect ProGRP. […] PMSF is a substance that is used to inactivate the activity of an enzyme of a serine protease such as thrombin and the presence of a protease such as thrombin can be considered to be the cause of ProGRP inactivation.

**Q.** For `O=S(=O)(F)Cc1ccccc1` [PMSF, Phenylmethanesulfonyl Fluoride], which “effect on decrease in the activity of ProGRP in serum” value is on record?
**A.** The value was “significantly suppressed”.
